Test results as given in patent publication US11498930B2 (BLUERAY THERAPEUTICS (SHANGHAI) CO., LTD., priority 2018, dated 2022).

Columns and labels:
SHP2^E76A protein = SHP2^E76A protein (Homo sapiens (Human), UniProt Q06124, E76A); test: SHP2 enzyme activity inhibition experiment; type: biochemical; conditions: SHP2 enzyme activity, Tables 1.1 and 1.2; read-out: IC50
Protocol: Compound powders were dissolved in DMSO to prepare mother liquor.
During the experiment, the stock solutions of the compounds were subjected to 3-fold gradient dilution with DMSO, and 10 different test concentrations of each compound were set. […] The protein used was the activated protein SHP^2E76A with amino acid mutation at position 76 of the protein, and the substrate used was DiFMUP (Invitrogen, E12020). […] 50 µL of enzyme solution was added to the detection wells, followed by 50 µL of substrate. […] GraphPad Prism 5 was used for nonlinear regression analysis, and the curve of enzyme activity versus compound concentration was fitted by the equation Y=Bottom+(Top-Bottom)/(1+10^((Log IC50−X)*HillSlope)) to calculate the IC50 value of each compound.

MOLM-13 cells = test: MOLM-13 cell proliferation experiment; type: cell-based; conditions: Homo sapiens, MOLM-13, 72 h, MOLM-13 cell proliferation, 3 days, Tables 3.1 and 3.2; read-out: IC50
Protocol: After 3 days, 5 µL of CellTiter-Glo reagent (Promega, ZG7572) was added to each well, and the plates were kept at room temperature in the dark for 10 minutes. The […] was detected by Spectra max i3 (Molecular Devices). The relative growth rate of the treated cells was compared with that of DMSO control.

Sequence of SHP2^E76A protein (Q06124 whole entry E76A): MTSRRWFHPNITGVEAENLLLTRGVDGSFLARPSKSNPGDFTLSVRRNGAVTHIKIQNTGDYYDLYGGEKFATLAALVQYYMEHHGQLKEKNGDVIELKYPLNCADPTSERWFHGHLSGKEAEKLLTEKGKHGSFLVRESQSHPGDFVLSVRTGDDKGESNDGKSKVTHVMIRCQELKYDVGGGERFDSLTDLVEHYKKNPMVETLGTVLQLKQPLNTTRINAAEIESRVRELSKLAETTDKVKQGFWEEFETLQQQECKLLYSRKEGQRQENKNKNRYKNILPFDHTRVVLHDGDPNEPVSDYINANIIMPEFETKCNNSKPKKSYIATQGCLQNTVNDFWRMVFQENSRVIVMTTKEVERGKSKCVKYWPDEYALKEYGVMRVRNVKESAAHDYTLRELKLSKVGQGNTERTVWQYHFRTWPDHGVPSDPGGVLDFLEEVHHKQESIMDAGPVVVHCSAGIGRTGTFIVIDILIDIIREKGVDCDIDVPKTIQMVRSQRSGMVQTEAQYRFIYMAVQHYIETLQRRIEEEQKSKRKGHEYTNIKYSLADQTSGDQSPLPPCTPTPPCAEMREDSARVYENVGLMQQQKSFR

CC1(N)CCN(c2ncc(Sc3cccc(Cl)c3Cl)c3nccn23)CC1 [1-(8-((2,3-dichlorophenyl)thio)imidazo[1,2-c]pyrimidin-5-yl)-4-methylpiperidin-4-amine]
IC50 (SHP2^E76A protein): 0.1 to 1 µM
IC50 (MOLM-13 cells): 0.1 to 1 µM

N[C@@H]1CCCN(c2ncc(Sc3cccc(Cl)c3Cl)c3nncn23)CC1 [(R)-1-(8-((2,3-dichlorophenyl)thio)-[1,2,4]triazolo[4,3-c]pyrimidin-5-yl)azepan-4-amine]
IC50 (SHP2^E76A protein): 0.1 to 1 µM
IC50 (MOLM-13 cells): 1 to 10 µM

NC1CCCN(c2ncc(Sc3cccc(Cl)c3Cl)c3ncnn23)CC1 (stereo not drawn) [1-(8-((2,3-dichlorophenyl)thio)-[1,2,4]triazolo[1,5-c]pyrimidin-5-yl)azepan-4-amine]
IC50 (SHP2^E76A protein): 0.1 to 1 µM
IC50 (MOLM-13 cells): 1 to 10 µM

Nc1cc(Sc2cnc(N3CCC4(CC3)COC[C@H]4N)n3cnnc23)c(Cl)c(Cl)n1 [(S)-8-(8-((6-amino-2,3-dichloropyridin-4-yl)thio)-[1,2,4]triazolo[4,3-c]pyrimidin-5-yl)-2-oxa-8-azaspiro[4.5]decan-4-amine]
IC50 (SHP2^E76A protein): < 0.1 µM
IC50 (MOLM-13 cells): 1 to 10 µM

CC1C[C@@H](N)C2(CCN(c3ncc(Sc4ccnc(N)c4Cl)c4nncn34)CC2)C1 (stereo partly drawn) [(1R)-8-(8-((2-amino-3-chloropyridin-4-yl)thio)-[1,2,4]triazolo[4,3-c]pyrimidin-5-yl)-3-methyl-8-azaspiro[4.5]decan-1-amine]
IC50 (SHP2^E76A protein): < 0.1 µM
IC50 (MOLM-13 cells): 0.1 to 1 µM

Nc1cccc(Sc2cnc(N3CCC4(CCC[C@H]4N)CC3)n3ccnc23)c1Cl [(R)-8-(8-((3-amino-2-chlorophenyl)thio)imidazo[1,2-c]pyrimidin-5-yl)-8-azaspiro[4.5]decan-1-amine]
IC50 (SHP2^E76A protein): 0.1 to 1 µM
IC50 (MOLM-13 cells): 0.1 to 1 µM

COc1ccccc1Sc1cnc(N2CCC3(CCC[C@H]3N)CC2)n2cnnc12 [(R)-8-(8-((2-methoxyphenyl)thio)-[1,2,4]triazolo[4,3-c]pyrimidin-5-yl)-8-azaspiro[4.5]decan-1-amine]
IC50 (SHP2^E76A protein): 0.1 to 1 µM
IC50 (MOLM-13 cells): 0.1 to 1 µM

Cc1ncccc1Sc1cnc(N2CCC3(CCC[C@H]3N)CC2)n2cnnc12
IC50 (MOLM-13 cells): 1 to 10 µM

N[C@@H]1CCCC12CCN(c1ncc(Sc3cccc(Cl)c3Cl)c3nncn13)CC2 [(R)-8-(8-((2,3-dichlorophenyl)thio)-[1,2,4]triazolo[4,3-c]pyrimidin-5-yl)-8-azaspiro[4.5]decan-1-amine]
IC50 (SHP2^E76A protein): < 0.1 µM
IC50 (MOLM-13 cells): 0.1 to 1 µM

Cc1ncccc1Sc1cnc(N2CCC3(CCC[C@H]3N)CC2)n2ccnc12
IC50 (MOLM-13 cells): 0.1 to 1 µM

COc1ccccc1Sc1cnc(N2CCC3(CCC[C@H]3N)CC2)n2ncnc12
IC50 (MOLM-13 cells): 1 to 10 µM

N[C@@H]1CCCC12CCN(c1ncc(Sc3ccc(Cl)cc3Cl)c3nncn13)CC2 [(R)-8-(8-((2,4-dichlorophenyl)thio)-[1,2,4]triazolo[4,3-c]pyrimidin-5-yl)-8-azaspiro[4.5]decan-1-amine]
IC50 (SHP2^E76A protein): 0.1 to 1 µM
IC50 (MOLM-13 cells): 1 to 10 µM

NC1CCCCC12CCN(c1ncc(Sc3cccc(Cl)c3Cl)c3ncnn13)CC2 (stereo not drawn)
IC50 (SHP2^E76A protein): 0.1 to 1 µM
IC50 (MOLM-13 cells): 1 to 10 µM

CN(C)C(=O)C(=O)Nc1cccc(Sc2cnc(N3CCC4(CCC[C@H]4N)CC3)n3ccnc23)c1Cl
IC50 (MOLM-13 cells): 0.1 to 1 µM

CC1C[C@@H](N)C2(CCN(c3ncc(Sc4ccnc(Cl)c4Cl)c4nncn34)CC2)C1 (stereo partly drawn) [(1R)-8-(8-((2,3-dichloropyridin-4-yl)thio)-[1,2,4]triazolo[4,3-c]pyrimidin-5-yl)-3-methyl-8-azaspiro[4.5]decan-1-amine]
IC50 (SHP2^E76A protein): < 0.1 µM
IC50 (MOLM-13 cells): 0.1 to 1 µM

CC(C)c1ccccc1Sc1cnc(N2CCC3(CCC[C@H]3N)CC2)n2cnnc12 [(R)-8-(8-((2-isopropylphenyl)thio)-[1,2,4]triazolo[4,3-c]pyrimidin-5-yl)-8-azaspiro[4.5]decan-1-amine]
IC50 (SHP2^E76A protein): 0.1 to 1 µM
IC50 (MOLM-13 cells): 1 to 10 µM

COC(=O)CCSc1cnc(N2CCC3(CCC[C@H]3N)CC2)n2cnnc12 [Methyl (R)-3-((5-(1-amino-8-azaspiro[4.5]decan-8-yl)-[1,2,4]triazolo[4,3-c]pyrimidin-8-yl)thio)propionate]
IC50 (SHP2^E76A protein): 1 to 10 µM

NC1CCN(c2ncc(Sc3cccc(Cl)c3Cl)c3nccn23)CC1 [1-(8-((2,3-dichlorophenyl)thio)imidazo[1,2-c]pyrimidin-5-yl)piperidin-4-amine]
IC50 (SHP2^E76A protein): 0.1 to 1 µM

N[C@H]1CCC12CCN(c1ncc(Sc3cccc(Cl)c3Cl)c3nncn13)CC2 [(S)-7-(8-((2,3-dichlorophenyl)thio)-[1,2,4]triazolo[4,3-c]pyrimidin-5-yl)-7-azaspiro[3.5]nonan-1-amine]
IC50 (SHP2^E76A protein): 1 to 10 µM

N[C@H]1CCCC12CCN(c1ncc(Sc3cccc(Cl)c3Cl)c3nncn13)CC2 [(S)-8-(8-((2,3-dichlorophenyl)thio)-[1,2,4]triazolo[4,3-c]pyrimidin-5-yl)-8-azaspiro[4.5]decan-1-amine]
IC50 (SHP2^E76A protein): 1 to 10 µM

C[C@H]1OCC2(CCN(c3ncc(Sc4cccc(Cl)c4Cl)c4ncnn34)CC2)[C@@H]1N [(3R,4S)-8-(8-((2,3-dichlorophenyl)thio)-[1,2,4]triazolo[1,5-c]pyrimidin-5-yl)-3-methyl-2-oxa-8-azaspiro[4.5]decan-4-amine]
IC50 (SHP2^E76A protein): 0.1 to 1 µM

Cc1nccc(Sc2cnc(N3CCC4(CC3)COC[C@H]4N)n3ncnc23)c1Cl [(S)-8-(8-((3-chloro-2-methylpyridin-4-yl)thio)-[1,2,4]triazolo[1,5-c]pyrimidin-5-yl)-2-oxa-8-azaspiro[4.5]decan-4-amine]
IC50 (SHP2^E76A protein): 1 to 10 µM

Cc1nccc(Sc2cnc(N3CCC4(CC3)COC[C@H]4N)n3cnnc23)c1Cl
IC50 (SHP2^E76A protein): 0.1 to 1 µM

Clc1cccc(Sc2cnc(N3CCC4(CCCN4)CC3)n3cnnc23)c1Cl [8-(8-((2,3-dichlorophenyl)thio)-[1,2,4]triazolo[4,3-c]pyrimidin-5-yl)-1,8-diazaspiro[4.5]decane]
IC50 (SHP2^E76A protein): 1 to 10 µM

N[C@@H]1CCCC12CCN(c1ncc(Sc3ccncc3C(F)(F)F)c3ncnn13)CC2 [(R)-8-(8-((3-(trifluoromethyl)pyridin-4-yl)thio)-[1,2,4]triazolo[1,5-c]pyrimidin-5-yl)-8-azaspiro[4.5]decan-1-amine]
IC50 (SHP2^E76A protein): 1 to 10 µM

COC(=O)c1ccccc1Sc1cnc(N2CCC3(CCC[C@H]3N)CC2)n2cnnc12 [Methyl (R)-2-((5-(1-amino-8-azaspiro[4.5]decan-8-yl)-[1,2,4]triazolo[4,3-c]pyrimidin-8-yl)thio)benzoate]
IC50 (SHP2^E76A protein): 1 to 10 µM

CN[C@@H]1CCCC12CCN(c1ncc(Sc3cccc(Cl)c3Cl)c3nncn13)CC2 [(R)-8-(8-((2,3-dichlorophenyl)thio)-[1,2,4]triazolo[4,3-c]pyrimidin-5-yl)-N-methyl-8-azaspiro[4.5]decan-1-amine]
IC50 (SHP2^E76A protein): 1 to 10 µM

C[C@@H]1OCC2(CCN(c3ncc(Sc4cc(N)ncc4Cl)c4nccn34)CC2)[C@@H]1N
IC50 (MOLM-13 cells): 0.1 to 1 µM

NCCC1CCN(c2ncc(Sc3cccc(Cl)c3Cl)c3nncn23)CC1 [2-(1-(8-((2,3-dichlorophenyl)thio)-[1,2,4]triazolo[4,3-c]pyrimidin-5-yl)piperidin-4-yl)ethan-1-amine]
IC50 (SHP2^E76A protein): 1 to 10 µM

N[C@@H]1CCCC12CCN(c1ncc(Sc3cccnc3)c3ncnn13)CC2 [(R)-8-(8-(pyridin-3-ylthio)-[1,2,4]triazolo[1,5-c]pyrimidin-5-yl)-8-azaspiro[4.5]decan-1-amine]
IC50 (SHP2^E76A protein): 1 to 10 µM

NCC1(c2ccccc2)CCN(c2ncc(Sc3cccc(Cl)c3Cl)c3nccn23)CC1 [(1-(8-((2,3-dichlorophenyl)thio)imidazo[1,2-c]pyrimidin-5-yl)-4-phenylpiperidin-4-yl)methanamine]
IC50 (SHP2^E76A protein): 0.1 to 1 µM

N[C@@H]1CCCC12CCN(c1ncc(-c3cccc(Cl)c3Cl)c3nccn13)CC2 [(R)-8-(8-(2,3-dichlorophenyl)imidazo[1,2-c]pyrimidin-5-yl)-8-azaspiro[4.5]decan-1-amine]
IC50 (SHP2^E76A protein): 0.1 to 1 µM

CC1(C)COC2(CCN(c3ncc(Sc4cccc(Cl)c4Cl)c4nccn34)CC2)[C@@H]1N [(R)-8-(8-((2,3-dichlorophenyl)thio)imidazo[1,2-c]pyrimidin-5-yl)-3,3-dimethyl-1-oxa-8-azaspiro[4.5]decan-4-amine]
IC50 (SHP2^E76A protein): 0.1 to 1 µM

N[C@@H]1CCCC12CCN(c1ncc(Sc3ccc(Cl)cc3)c3nncn13)CC2 [(R)-8-(8-((4-chlorophenyl)thio)-[1,2,4]triazolo[4,3-c]pyrimidin-5-yl)-8-azaspiro[4.5]decan-1-amine]
IC50 (SHP2^E76A protein): 1 to 10 µM

COc1ccccc1Sc1cnc(N2CCC3(CCC[C@H]3N)CC2)n2ncnc12 [(R)-8-(8-((2-methoxyphenyl)thio)-[1,2,4]triazolo[1,5-c]pyrimidin-5-yl)-8-azaspiro[4.5]decan-1-amine]
IC50 (SHP2^E76A protein): 0.1 to 1 µM

C[C@H]1OCC2(CCN(c3ncc(Sc4cccc(Cl)c4Cl)c4ncnn34)CC2)[C@H]1N [(3R,4R)-8-(8-((2,3-dichlorophenyl)thio)-[1,2,4]triazolo[1,5-c]pyrimidin-5-yl)-3-methyl-2-oxa-8-azaspiro[4.5]decan-4-amine]
IC50 (SHP2^E76A protein): 1 to 10 µM

Cc1ncccc1Sc1cnc(N2CCC3(CCC[C@H]3N)CC2)n2ncnc12
IC50 (SHP2^E76A protein): 1 to 10 µM

CC(C)c1ccccc1Sc1cnc(N2CCC3(CCC[C@H]3N)CC2)n2ccnc12 [(R)-8-(8-((2-isopropylphenyl)thio)imidazo[1,2-c]pyrimidin-5-yl)-8-azaspiro[4.5]decan-1-amine]
IC50 (SHP2^E76A protein): 0.1 to 1 µM

Cc1nccc(Sc2cnc(N3CCC4(CC3)COC[C@H]4N)n3cnnc23)c1Cl [(S)-8-(8-((3-chloro-2-methylpyridin-4-yl)thio)-[1,2,4]triazolo[4,3-c]pyrimidin-5-yl)-2-oxa-8-azaspiro[4.5]decan-4-amine]
IC50 (MOLM-13 cells): 0.1 to 1 µM
